Results on 34 compounds are retold here after patent US10221175B2, “Substituted pyrrolo[3,4-e]indolizines, imidazo[1,2-a]pyrrolo[3,4-e]pyridines, pyrrolo[3,4-e][1,2,4]triazolo[1,5-a]pyridines and pyrrolo[3,4-e][1,2,4]triazolo[4,3-a]pyridines as positive allosteric modulators of muscarinic acetylcholine receptor M1” (Vanderbilt University, priority 2015, dated 2019).

The test concerns the target T1, mAChR M1 (UniProt P11229).
T1 sequence (P11229 1-460): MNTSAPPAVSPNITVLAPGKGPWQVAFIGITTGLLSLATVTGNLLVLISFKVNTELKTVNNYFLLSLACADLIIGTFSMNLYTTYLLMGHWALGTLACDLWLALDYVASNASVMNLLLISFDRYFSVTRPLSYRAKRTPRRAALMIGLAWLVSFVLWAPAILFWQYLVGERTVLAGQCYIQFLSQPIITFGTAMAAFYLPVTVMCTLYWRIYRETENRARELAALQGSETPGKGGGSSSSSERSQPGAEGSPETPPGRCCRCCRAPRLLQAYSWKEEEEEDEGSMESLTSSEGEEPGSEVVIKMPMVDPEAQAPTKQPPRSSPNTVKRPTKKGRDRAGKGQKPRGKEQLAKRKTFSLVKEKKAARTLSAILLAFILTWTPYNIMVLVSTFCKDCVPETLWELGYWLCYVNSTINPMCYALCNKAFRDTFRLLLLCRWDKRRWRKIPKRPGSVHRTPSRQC
As to the kind of experiment: mAChR M1 cell-based functional assay (calcium mobilization, potentiation of EC20 acetylcholine response). To be noted: for M1 AChmax (%): maximal response as % of ACh maximum, CHO-K1 cells expressing M1; for EC50: positive allosteric modulator activity, concentration-dependent increase in EC20 acetylcholine response, CHO-K1 cells, >10 μM estimated where no plateau but >20% increase in ACh response. The source says: Chinese hamster ovary (CHO-K1) cells stably expressing rat (r)M1 were purchased from the American Type Culture Collection and cultured according to their indicated protocol. CHO cells stably expressing human (h)M2, hM3, and hM5 were described previously (Levey, et al., 1991); hM1 and hM4 cDNAs were purchased from Missouri S&T cDNA Resource; rM4 cDNA was provided by T. I. Bonner (National Institutes of Health, Bethesda, Md.). rM2 and rM3 were cloned from a rat brain cDNA library and sequence verified. hM1, rM2, rM3, hM4, and rM4 cDNAs were used to stably transfect CHO-K1 cells purchased from the American Type Culture Collection using Lipofectamine2000. To make stable rM2, hM2, rM3, hM4, and rM4 cell lines for use in calcium mobilization assays, these cells also were stably transfected with a chimeric G-protein (Gqi5) (provided by B. R. Conklin, University of California, San Francisco) using Lipofectamine 2000. rM1, hM1, rM3, hM3, rM5, and hM5 cells were grown in Ham's F-12 medium containing 10% heat-inactivated fetal bovine serum (FBS), 20 mM HEPES, and 50 μg/mL G418 sulfate. rM2-Gqi5, hM2-Gqi5, and hM4-Gqi5 cells were grown in the same medium also containing 500 μg/mL Hygromycin B. Stable rM4-Gqi5 cells were grown in DMEM containing 10% heat-inactivated FBS, 20 mM HEPES, 400 μg/mL G418 sulfate, and 500 μg/mL Hygromycin B.
For high throughput measurement of agonist-evoked increases in intracellular calcium, CHO-K1 cells stably expressing muscarinic receptors were plated in growth medium lacking G418 and hygromycin at 15,000 cells/20 μL/well in Greiner 384-well black-walled, tissue culture (TC)-treated, clear-bottom plates (VWR). Cells were incubated overnight at 37° C. and 5% CO2. The next day, cells were washed using an ELX 405 (BioTek) with four washes (80 μL) of assay buffer then aspirated to 20 μL. Next, 20 μL of 16 μM Fluo-4/acetoxymethyl ester (Invitrogen, Carlsbad, Calif.) prepared as a 2.3 mM stock in DMSO and mixed in a 1:1 ratio with 10% (w/v) Pluronic F-127 and diluted in assay buffer was added to the wells and the cell plates were incubated for 50 min at 37° C. and 5% CO2. Dye was removed by washing with the ELX 405 (four 80 μL washes of assay buffer) then aspirated to 20 μL. Compound master plates were formatted in an 11 point CRC format (1:3 dilutions) in 100% DMSO with a starting concentration of 10 mM using the BRAVO liquid handler (Agilent). Test compound CRCs were then transferred to daughter plates (240 nL) using the Echo acoustic plate reformatter (Labcyte, Sunnyvale, Calif.) and then diluted into assay buffer (40 μL) to a 2× stock using a Thermo Fisher Combi (Thermo Fisher Scientific, Waltham, Mass.).
Calcium flux was measured using the Functional Drug Screening System (FDSS) 6000 (Hamamatsu Corporation, Tokyo, Japan) as an increase in the fluorescent static ratio. Compounds were applied to cells (20 μL, 2×) using the automated system of the FDSS 6000 at 4 s into the 300 s protocol and the data were collected at 1 Hz. At 144 s into the 300s protocol, 10 μL of an EC20 concentration of the muscarinic receptor agonist acetylcholine was added (5×), followed by the addition of 12 μL an EC8O concentration of acetylcholine at the 230 s time point (5×). Agonist activity was analyzed as a concentration-dependent increase in calcium mobilization upon compound addition. Positive allosteric modulator activity was analyzed as a concentration-dependent increase in the EC20 acetylcholine response. Antagonist activity was analyzed as a concentration-dependent decrease in the EC80 acetylcholine response. Concentration-response curves were generated using a four-parameter logistical equation in XLfit curve fitting software (IDBS, Bridgewater, N.J.) for Excel (Microsoft, Redmond, Wash.) or Prism (GraphPad Software, Inc., San Diego, Calif.). […]

`Cn1cc2c(-c3cc(F)c(CN4Cc5ccc6nncn6c5C4=O)c(F)c3)cccc2n1` [Compound 1, 7-(2,6-difluoro-4-(2-methyl-2h-indazol-4-yl)benzyl)-6,7-dihydro-8H-pyrrolo[3,4-e][1,2,4]triazolo [4,3-a]pyridin-8-one]: the “M1 AChmax (%)” value is listed as 72 (n = 2) %.
As to `Cn1cc2c(-c3ccc(CN4Cc5ccc6nncn6c5C4=O)c(F)c3)cccc2n1` [Compound 2, 7-(2-fluoro-4-(2-methyl-2H-indazol-4-yl)benzyl)-6,7-dihydro-8H-pyrrolo [3,4-e][1,2,4]triazol[4,3-a]pyridin-8-one], the “M1 AChmax (%)” value turned out to be 78% and the EC50 (in general, the concentration at which the effect is half-maximal) was 688 nM.
The matching figures for `Cn1cc(-c2cc(F)c(CN3Cc4ccc5nncn5c4C3=O)c(F)c2)cn1` [Compound 3]: 83% and 656 nM.
The matching figures for `O=C1c2c(ccc3nncn23)CN1Cc1ccc(-c2cnc3ccccc3c2)cc1F` [Compound 4]: 73% and 1750 nM.
As for `O=C1c2c(ccc3nncn23)CN1Cc1c(F)cc(-c2ccc3ncccc3c2)cc1F` [Compound 5], the “M1 AChmax (%)” value is 81% and the EC50 was 743 nM.
The matching figures for `Cn1cc2cc(-c3cc(F)c(CN4Cc5ccc6nncn6c5C4=O)c(F)c3)ccc2n1` [Compound 6]: 84% and 488 nM.
The matching figures for `COc1ccc(-c2cc(F)c(CN3Cc4ccc5nncn5c4C3=O)c(F)c2)cn1` [Compound 7]: 70% and 2640 nM.
In the same order, the values of `Cc1ccc(-c2ccc(CN3Cc4ccc5nncn5c4C3=O)c(F)c2)c2cn(C)nc12` [Compound 8] are 82% and 1060 nM.
For `Cn1cc2cc(-c3ccc(CN4Cc5ccc6nncn6c5C4=O)c(F)c3)ccc2n1` [Compound 9, 7-(2-fluoro-4-(2-methyl-2H-indazol-5-yl)benzyl)-6,7-dihydro-8H-pyrrolo [3,4-e][1,2,4]triazolo[4,3-a]pyridin-8-one], the “M1 AChmax (%)” value was 90% and the EC50 is 502 nM.
The matching figures for `O=C1c2c(ccc3nncn23)CN1Cc1ccc(-c2ccc3ncccc3c2)cc1F` [Compound 10]: 84% and 1570 nM.
In the same order, the values of `Cn1cc(-c2ccc(CN3Cc4ccc5nncn5c4C3=O)c(F)c2)cn1` [Compound 11] are 86% and 856 nM.
The matching figures for `O=C1c2c(ccc3nncn23)CN1Cc1c(F)cc(-c2cnc3ccccc3c2)cc1F` [Compound 13]: 57% and 1820 nM.
In the case of `Cc1nnc2ccc3c(n12)C(=O)N(Cc1c(F)cc(-c2cnn(C)c2)cc1F)C3` [Compound 14], the “M1 AChmax (%)” value is listed as 79% and the EC50 was 1790 nM.
In the same order, the values of `Cc1nnc2ccc3c(n12)C(=O)N(Cc1c(F)cc(-c2ccc4nn(C)cc4c2)cc1F)C3` [Compound 15] are 76% and 1240 nM.
In the case of `Cc1nnc2ccc3c(n12)C(=O)N(Cc1ccc(-c2ccc4nn(C)cc4c2)cc1F)C3` [Compound 16], the “M1 AChmax (%)” value amounted to 83% and the EC50 was 1210 nM.
In the same order, the values of `Cc1cc(-c2ccc(CN3Cc4ccc5nncn5c4C3=O)c(F)c2)cc2cn(C)nc12` [Compound 17] are 81% and 618 nM.
The matching figures for `Cc1ccc(-c2ccc(CN3Cc4ccc5nnc(C)n5c4C3=O)c(F)c2)c2cn(C)nc12` [Compound 18]: 82% and 2140 nM.
In the same order, the values of `Cc1nnc2ccc3c(n12)C(=O)N(Cc1c(F)cc(-c2cccc4nn(C)cc24)cc1F)C3` [Compound 19] are 81% and 1410 nM.
Take `Cc1cc(-c2ccc(CN3Cc4ccc5nnc(C)n5c4C3=O)c(F)c2)cc2cn(C)nc12` [Compound 20]: the “M1 AChmax (%)” value was 84% and the EC50 is 2100 nM.
The matching figures for `Cn1cc(-c2ccc(F)c(CN3Cc4ccc5nncn5c4C3=O)c2)cn1` [Compound 21]: 36.8% and over 10000 nM.
In the same order, the values of `Cn1cc2cc(-c3ccc(F)c(CN4Cc5ccc6nncn6c5C4=O)c3)ccc2n1` [Compound 22] are 35.3% and 1310 nM.
The matching figures for `Cn1cc2c(-c3ccc(F)c(CN4Cc5ccc6nncn6c5C4=O)c3)cccc2n1` [Compound 23]: 56.4% and 1350 nM.
Take `O=C1c2c(ccc3nncn23)CN1Cc1cc(-c2ccc3ncccc3c2)ccc1F` [Compound 25]: the EC50 was over 30000 nM.
Same read-out and setting: with `COc1ccc(-c2ccc(F)c(CN3Cc4ccc5nncn5c4C3=O)c2)cn1` [Compound 26] the figure was over 30000 nM.
Turning to `Cn1cc(-c2ccc(CN3Cc4ccc5nccn5c4C3=O)c(F)c2)cn1` [Compound 27], the “M1 AChmax (%)” value is on record as 70.1% and the EC50 was 2260 nM.
In the same order, the values of `Cn1cc(-c2cc(F)c(CN3Cc4ccc5nccn5c4C3=O)c(F)c2)cn1` [Compound 28, 2-(2,6-difluoro-4-(1-methyl-1H-pyrazol-4-yl)benzyl)-2,3-dihydro-1H-imidazo[1,2-a]pyrrolo[3,4-e]pyridin-1-one] are 67.7% and 2370 nM.
With `Cc1cn2c3c(ccc2n1)CN(Cc1c(F)cc(-c2cnn(C)c2)cc1F)C3=O` [Compound 29], the EC50 is over 30000 nM.
In the case of `Cn1cc(-c2ccc(CN3Cc4ccc5ncnn5c4C3=O)c(F)c2)cn1` [Compound 30], the “M1 AChmax (%)” value is 85.9% and the EC50 was 677 nM.
In the same order, the values of `Cn1cc(-c2cc(F)c(CN3Cc4ccc5ncnn5c4C3=O)c(F)c2)cn1` [Compound 31, 7-(2,6-difluoro-4-(1-methyl-1H-pyrazol-4-yl)benzyl)-6,7-dihydro-8H-pyrrolo[3,4-e][1,2,4]triazolo[1,5-a]pyridin-8-one] are 85.3% and 1630 nM.
With `Cn1cc2c(-c3cc(F)c(CN4Cc5ccc6nccn6c5C4=O)c(F)c3)cccc2n1` [Compound 32], the “M1 AChmax (%)” value was 72% and the concentration giving a half-maximal response (EC50) was 1400 nM.
In the same order, the values of `Cn1cc2c(-c3ccc(CN4Cc5ccc6nccn6c5C4=O)c(F)c3)cccc2n1` [Compound 33] are 65% and 2200 nM.
The matching figures for `Cn1cc2cc(-c3ccc(CN4Cc5ccc6nccn6c5C4=O)c(F)c3)ccc2n1` [Compound 34]: 62% and 3900 nM.
On to `Cn1cc2cc(-c3cc(F)c(CN4Cc5ccc6nccn6c5C4=O)c(F)c3)ccc2n1` [Compound 35], for which the “M1 AChmax (%)” value stood at 42%.
In the case of `Cc1ccc(CN2Cc3ccc4nccn4c3C2=O)cn1` [Compound 36], the “M1 AChmax (%)” value was 25% and the concentration for a half-maximal effect (EC50) was over 10000 nM.
